Data on 27 compounds can be found in patent publication US10758534B2 (Vertex Pharmaceuticals Incorporated, priority 2014, dated 2020).

This assay concerns the target T1, F508del (Homo sapiens, UniProt P13569, DEL508-508).
T1 construct: expressed in transfected cells
Briefly: Protocol 1: membrane potential optical assay (FLIPR III, voltage sensing dye), identification of potentiator compounds. The format is cell-based. Particulars: Table 3, compounds of Table 1. The gist of the method: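 Read-out: change in voltage-sensing dye fluorescence (FLIPR III) as a measure of F508del conductance. Temperature-corrected (27° C, 24 hrs) NIH 3T3 cells expressing F508del are pretreated with potentiators, dye-loaded, then stimulated with forskolin under a chloride ion gradient using chloride-free gluconate bath.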

T1 sequence (P13569 with tags, fused parts or gaps DEL508-508): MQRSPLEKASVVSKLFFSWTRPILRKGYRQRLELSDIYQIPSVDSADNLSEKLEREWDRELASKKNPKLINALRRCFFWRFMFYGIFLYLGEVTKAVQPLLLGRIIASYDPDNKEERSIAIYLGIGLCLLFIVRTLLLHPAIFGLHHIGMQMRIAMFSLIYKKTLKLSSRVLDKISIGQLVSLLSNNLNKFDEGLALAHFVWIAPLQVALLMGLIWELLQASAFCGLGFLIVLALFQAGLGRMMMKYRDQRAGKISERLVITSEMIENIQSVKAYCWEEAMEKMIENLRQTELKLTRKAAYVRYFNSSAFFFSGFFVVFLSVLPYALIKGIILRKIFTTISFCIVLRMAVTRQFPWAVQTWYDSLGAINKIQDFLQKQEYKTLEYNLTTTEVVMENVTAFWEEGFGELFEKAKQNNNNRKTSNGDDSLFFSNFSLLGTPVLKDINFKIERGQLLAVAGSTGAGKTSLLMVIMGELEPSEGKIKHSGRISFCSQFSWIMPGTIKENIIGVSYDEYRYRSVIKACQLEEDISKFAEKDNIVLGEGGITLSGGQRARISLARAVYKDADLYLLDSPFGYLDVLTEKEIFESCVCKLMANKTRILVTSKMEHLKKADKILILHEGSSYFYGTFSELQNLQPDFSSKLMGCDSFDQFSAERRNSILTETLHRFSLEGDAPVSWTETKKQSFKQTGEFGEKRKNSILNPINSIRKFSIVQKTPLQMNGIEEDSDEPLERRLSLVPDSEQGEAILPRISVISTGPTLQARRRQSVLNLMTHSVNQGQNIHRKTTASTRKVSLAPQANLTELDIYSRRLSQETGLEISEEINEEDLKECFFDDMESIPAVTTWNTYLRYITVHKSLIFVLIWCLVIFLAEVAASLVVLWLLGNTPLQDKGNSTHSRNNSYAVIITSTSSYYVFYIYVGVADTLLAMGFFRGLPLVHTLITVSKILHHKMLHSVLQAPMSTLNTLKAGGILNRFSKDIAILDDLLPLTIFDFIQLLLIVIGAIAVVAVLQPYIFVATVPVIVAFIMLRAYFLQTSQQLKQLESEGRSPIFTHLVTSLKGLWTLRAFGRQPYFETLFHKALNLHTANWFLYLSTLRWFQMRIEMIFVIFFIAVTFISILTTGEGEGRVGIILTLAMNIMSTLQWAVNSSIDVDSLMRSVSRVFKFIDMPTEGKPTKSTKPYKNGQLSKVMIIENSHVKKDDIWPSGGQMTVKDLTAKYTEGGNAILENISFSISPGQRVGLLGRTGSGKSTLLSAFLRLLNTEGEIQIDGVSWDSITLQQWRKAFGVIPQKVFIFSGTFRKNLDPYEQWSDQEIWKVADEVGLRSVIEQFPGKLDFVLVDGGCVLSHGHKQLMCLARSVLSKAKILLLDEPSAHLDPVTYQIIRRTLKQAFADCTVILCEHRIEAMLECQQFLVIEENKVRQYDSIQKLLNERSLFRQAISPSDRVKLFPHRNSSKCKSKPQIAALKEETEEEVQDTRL

In the case of `COc1cccc(S(=O)(=O)NC(=O)c2ccc(-c3cc(F)cc(OCC(C)C)c3)nc2N2C[C@@H](C)CC2(C)C)c1` [Compound 1452, 6-(3-fluoro-5-isobutoxy-phenyl)-N-(3-methoxyphenyl)sulfonyl-2-[(4S)-2,2,4-trimethylpyrrolidin-1-yl]pyridine-3-carboxamide], the EC30 entry is listed as “+++ (“+++” means <3 uM)”.

As for `CC(C)COc1cc(F)cc(-c2ccc(C(=O)NS(=O)(=O)c3cccc(N)n3)c(N3CC(C)(C)CC3(C)C)n2)c1` [Compound 850, N-[(6-amino-2-pyridyl)sulfonyl]-6-(3-fluoro-5-isobutoxy-phenyl)-2-(2,2,4,4-tetramethylpyrrolidin-1-yl)pyridine-3-carboxamide], the EC30 entry is given as “+++ (“+++” means <3 uM)”.

Regarding `Cc1nc(OC(C)C)ccc1-c1ccc(C(=O)NS(=O)(=O)c2cccc(N)n2)c(N2CC(C)CC2(C)C)n1` (stereo not drawn) [Compound 814, N-[(6-amino-2-pyridyl)sulfonyl]-6-(6-isopropoxy-2-methyl-3-pyridyl)-2-(2,2,4-trimethylpyrrolidin-1-yl)pyridine-3-carboxamide], the EC30 entry is recorded as “+++ (“+++” means <3 uM)”.

Regarding `COc1cccc(-c2ccc(C(=O)NS(=O)(=O)c3ccc[nH]c3=O)c(N3C[C@@H](C)CC3(C)C)n2)c1` [Compound 1927, 6-(3-methoxyphenyl)-N-[(2-oxo-1H-pyridin-3-yl)sulfonyl]-2-[(4S)-2,2,4-trimethylpyrrolidin-1-yl]pyridine-3-carboxamide], the EC30 result is “+++ (“+++” means <3 uM)”.

Consider `CCOc1cccc2c1CN(Cc1ccccc1C)C2(C)C(=O)NS(=O)(=O)c1cccc(N)n1` (stereo not drawn) [Compound 1408, N-[(6-amino-2-pyridyl)sulfonyl]-4-ethoxy-1-methyl-2-(o-tolylmethyl)isoindoline-1-carboxamide], for which the EC30 result is listed as “+++ (“+++” means <3 uM)”.

With `CCC1CCCN1c1nc(-c2cc(F)cc(OCC(C)C)c2)ccc1C(=O)NS(=O)(=O)c1cccc(N)n1` (stereo not drawn) [Compound 1218, N-[(6-amino-2-pyridyl)sulfonyl]-2-(2-ethylpyrrolidin-1-yl)-6-(3-fluoro-5-isobutoxy-phenyl)pyridine-3-carboxamide], the EC30 result was “+++ (“+++” means <3 uM)”.

Consider `CC(Nc1ncccc1C(=O)NS(=O)(=O)c1cccc(N)n1)c1cccc2ccccc12` (stereo not drawn) [Compound 1769, N-[(6-amino-2-pyridyl)sulfonyl]-2-[1-(1-naphthyl)ethylamino]pyridine-3-carboxamide], for which the EC30 entry was “++ (“++” means between 3 uM and 10 uM)”.

With `CCOc1cccc(-c2ccc(C(=O)NS(=O)(=O)c3cccc(N)n3)c(Oc3c(C)cc(C)cc3C)n2)n1` [Compound 1133, N-[(6-amino-2-pyridyl)sulfonyl]-6-(6-ethoxy-2-pyridyl)-2-(2,4,6-trimethylphenoxy)pyridine-3-carboxamide], the EC30 entry was “+++ (“+++” means <3 uM)”.

For the compound `CC(C)COc1cc(F)cc(-c2ccc(C(=O)NS(=O)(=O)c3cccc(N)n3)c(N3[C@@H](C)CCC3(C)C)n2)c1` [Compound 1241, N-[(6-amino-2-pyridyl)sulfonyl]-6-(3-fluoro-5-isobutoxy-phenyl)-2-[(5S)-2,2,5-trimethylpyrrolidin-1-yl]pyridine-3-carboxamide], the EC30 entry is listed as “+++ (“+++” means <3 uM)”.

As to `C[C@@H]1CN(c2nc(C(C)(C)C)c(/C=C/C3CCCC3)cc2C(=O)NS(=O)(=O)c2cccc(N)n2)C(C)(C)C1` [Compound 1633, N-[(6-amino-2-pyridyl)sulfonyl]-6-tert-butyl-5-[(E)-2-cyclopentylvinyl]-2-[(4S)-2,2,4-trimethylpyrrolidin-1-yl]pyridine-3-carboxamide], the EC30 result was “+++ (“+++” means <3 uM)”.

Consider `CC1CC(C)CN(c2cccc(S(=O)(=O)NC(=O)c3cccnc3N3CC(C)CC3(C)C)n2)C1` (stereo not drawn) [Compound 1749, N—[[6-(3,5-dimethyl-1-piperidyl)-2-pyridyl]sulfonyl]-2-(2,2,4-trimethylpyrrolidin-1-yl)pyridine-3-carboxamide], for which the EC30 result was “+++ (“+++” means <3 uM)”.

Consider `CC(Oc1nc(N2C[C@@H](C)CC2(C)C)c(C(=O)NS(=O)(=O)c2cccc(N)n2)cc1F)C1CCOCC1` (stereo partly drawn) [Compound 1891, N-[(6-amino-2-pyridyl)sulfonyl]-5-fluoro-6-(1-tetrahydropyran-4-ylethoxy)-2-[(4S)-2,2,4-trimethylpyrrolidin-1-yl]pyridine-3-carboxamide], for which the EC30 result is “+++ (“+++” means <3 uM)”.

On to `CCOc1cc(C)cc(-c2ccc(C(=O)NS(=O)(=O)c3cccc(N)n3)c(N3C[C@@H](C)CC3(C)C)n2)n1` [Compound 1512, N-[(6-amino-2-pyridyl)sulfonyl]-6-(6-ethoxy-4-methyl-2-pyridyl)-2-[(4S)-2,2,4-trimethylpyrrolidin-1-yl]pyridine-3-carboxamide], for which the EC30 entry is “+++ (“+++” means <3 uM)”.

On to `CC(C)COc1cc(F)cc(-c2ccc(C(=O)NS(=O)(=O)c3cccc(N)n3)c(OC(C)C3CCCC3)n2)c1` (stereo not drawn) [Compound 1374, N-[(6-amino-2-pyridyl)sulfonyl]-2-(1-cyclopentylethoxy)-6-(3-fluoro-5-isobutoxy-phenyl)pyridine-3-carboxamide], for which the EC30 result is “+++ (“+++” means <3 uM)”.

`C[C@@H]1CN(c2nc(C(C)(C)C)ccc2C(=O)NS(=O)(=O)c2cccc(N)n2)C(C)(C)C1` [Compound 985, N-[(6-amino-2-pyridyl)sulfonyl]-6-tert-butyl-2-[(4S)-2,2,4-trimethylpyrrolidin-1-yl]pyridine-3-carboxamide]: the EC30 result is “+++ (“+++” means <3 uM)”.

`CC(=O)Nc1cccc(S(=O)(=O)NC(=O)c2ccc(-c3cc(F)cc(OCC(C)C)c3)nc2N2C[C@@H](C)CC2(C)C)n1` [Compound 1652, N-[(6-acetamido-2-pyridyl)sulfonyl]-6-(3-fluoro-5-isobutoxy-phenyl)-2-[(4S)-2,2,4-trimethylpyrrolidin-1-yl]pyridine-3-carboxamide]: the EC30 result is “+++ (“+++” means <3 uM)”.

Take `CCOc1cccc2c1CN(Cc1c(C)cc(C)cc1C)C2(C)C(=O)NS(=O)(=O)c1cccc2[nH]ccc12` (stereo not drawn) [Compound 1666, 4-ethoxy-N-(1H-indol-4-ylsulfonyl)-1-methyl-2-[(2,4,6-trimethylphenyl)methyl]isoindoline-1-carboxamide]: the EC30 entry is “+++ (“+++” means <3 uM)”.

On to `Cc1cc(C)c(Cn2nc(C(C)(C)C)cc2C(=O)NS(=O)(=O)c2ccc(CN)cc2)c(C)c1` [Compound 1670, N-[4-(aminomethyl)phenyl]sulfonyl-5-tert-butyl-2-[(2,4,6-trimethylphenyl)methyl]pyrazole-3-carboxamide], for which the EC30 entry is “++ (“++” means between 3 uM and 10 uM)”.

For the compound `COc1ncc(-c2ccc(C(=O)NS(=O)(=O)c3ccc[nH]c3=O)c(Oc3c(C)cc(C)cc3C)n2)cc1C` [Compound 930, 6-(6-methoxy-5-methyl-3-pyridyl)-N-[(2-oxo-1H-pyridin-3-yl)sulfonyl]-2-(2,4,6-trimethylphenoxy)pyridine-3-carboxamide], the EC30 result is “++ (“++” means between 3 uM and 10 uM)”.

Consider `CC(C)COc1cc(F)cc(-c2ccc(C(=O)NS(=O)(=O)c3cccc(N)n3)c(OC3CCC3)n2)c1` [Compound 1580, N-[(6-amino-2-pyridyl)sulfonyl]-2-(cyclobutoxy)-6-(3-fluoro-5-isobutoxy-phenyl)pyridine-3-carboxamide], for which the EC30 entry was “+++ (“+++” means <3 uM)”.

For `CC1CN(c2ncccc2C(=O)NS(=O)(=O)c2cccc(OCc3ccc(Cl)cc3Cl)n2)C(C)(C)C1` (stereo not drawn) [Compound 1929, N—[[6-[(2,4-dichlorophenyl)methoxy]-2-pyridyl]sulfonyl]-2-(2,2,4-trimethylpyrrolidin-1-yl)pyridine-3-carboxamide], the EC30 result was “+++ (“+++” means <3 uM)”.

As for `Cc1cc(C)c(Oc2nc(-c3cccc(Cl)c3)ccc2C(=O)NS(=O)(=O)c2ccc[nH]c2=O)c(C)c1` [Compound 1095, 6-(3-chlorophenyl)-N-[(2-oxo-1H-pyridin-3-yl)sulfonyl]-2-(2,4,6-trimethylphenoxy)pyridine-3-carboxamide], the EC30 result is “++ (“++” means between 3 uM and 10 uM)”.

With `C[C@@H]1CN(c2nc(C(F)(F)F)ccc2C(=O)NS(=O)(=O)c2cccc(N)n2)C(C)(C)C1` [Compound 1556, N-[(6-amino-2-pyridyl)sulfonyl]-6-(trifluoromethyl)-2-[(4S)-2,2,4-trimethylpyrrolidin-1-yl]pyridine-3-carboxamide], the EC30 result is recorded as “+++ (“+++” means <3 uM)”.

Consider `COC1CCCN(S(=O)(=O)NC(=O)c2ccc(-c3cc(F)cc(OCC(C)C)c3)nc2N2C[C@@H](C)CC2(C)C)C1` (stereo partly drawn) [Compound 1545, 6-(3-fluoro-5-isobutoxy-phenyl)-N-[(3-methoxy-1-piperidyl)sulfonyl]-2-[(4S)-2,2,4-trimethylpyrrolidin-1-yl]pyridine-3-carboxamide], for which the EC30 entry is on record as “+++ (“+++” means <3 uM)”.

As to `Cc1cc(OCC(C)C)nc(-c2ccc(C(=O)NS(=O)(=O)c3cccc(N)n3)c(N3C[C@@H](C)CC3(C)C)n2)c1` [Compound 1656, N-[(6-amino-2-pyridyl)sulfonyl]-6-(6-isobutoxy-4-methyl-2-pyridyl)-2-[(4S)-2,2,4-trimethylpyrrolidin-1-yl]pyridine-3-carboxamide], the EC30 result was “+++ (“+++” means <3 uM)”.

With `CC1CN(c2nc(-c3cnc(OC(C)C)cn3)ccc2C(=O)NS(=O)(=O)c2cccc(N)n2)C(C)(C)C1` (stereo not drawn) [Compound 965, N-[(6-amino-2-pyridyl)sulfonyl]-6-(5-isopropoxypyrazin-2-yl)-2-(2,2,4-trimethylpyrrolidin-1-yl)pyridine-3-carboxamide], the EC30 result is recorded as “+++ (“+++” means <3 uM)”.

Consider `C[C@@H]1CN(c2nc(-c3cccc(CO)c3)ccc2C(=O)NS(=O)(=O)c2cccnc2N)C(C)(C)C1` [Compound 1738, N-[(2-amino-3-pyridyl)sulfonyl]-6-[3-(hydroxymethyl)phenyl]-2-[(4S)-2,2,4-trimethylpyrrolidin-1-yl]pyridine-3-carboxamide], for which the EC30 entry is on record as “+++ (“+++” means <3 uM)”.
